Data: patent US7919508B2, “3-piperidinylisochroman-5-ols as dopamine agonists” (Aventis Pharmaceuticals Inc., priority 2004, dated 2011)
Structures can show the parent of a compound that is named as a salt.

Key:
[1] = target: human dopamine D2Long (D2L) receptors (Homo sapiens, UniProt P14416)
[2] = target: T1, human dopamine D1 receptor (Homo sapiens, UniProt P21728); test: [3H]-SCH-23390 binding to cloned human dopamine D1 receptors (CHO cell membranes); conditions: competitive binding, [3H]-SCH-23390, cloned human D1 in CHO membranes; read-out: D1 affinity Ki
T1 construct: A 1.4 Kb Hind III to Xho I fragment was subcloned into the vector pMMLV; expressed in transfected cells; host or cells: CHO cells, clone CHO-D1M#9 (plasmid pHD1MMLV), membranes
T1 sequence (P21728 whole entry, the tested form may be a part): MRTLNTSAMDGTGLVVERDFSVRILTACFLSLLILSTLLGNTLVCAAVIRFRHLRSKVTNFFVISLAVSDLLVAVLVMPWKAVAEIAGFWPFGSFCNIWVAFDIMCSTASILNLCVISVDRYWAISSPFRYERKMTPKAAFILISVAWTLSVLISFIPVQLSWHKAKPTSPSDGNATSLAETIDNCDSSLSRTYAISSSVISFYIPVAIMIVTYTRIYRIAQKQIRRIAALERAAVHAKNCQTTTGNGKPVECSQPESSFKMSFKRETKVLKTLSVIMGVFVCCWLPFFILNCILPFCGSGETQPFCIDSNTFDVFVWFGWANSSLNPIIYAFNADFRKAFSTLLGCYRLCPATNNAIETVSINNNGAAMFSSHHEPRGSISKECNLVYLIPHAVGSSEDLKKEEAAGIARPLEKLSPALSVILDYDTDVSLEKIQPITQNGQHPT
Method: [^3H]-SCH-23390 Binding to Cloned Human Dopamine D1 Receptors
Determination of relative binding affinity of potential neuropsychiatric and other agents for the human dopamine D1 receptor.
The human D, cDNA was obtained from the laboratory of Dr. Marc Caron in the vector pCMV5. A 1.4 Kb Hind III to Xho I fragment was subcloned into the vector pMMLV. The plasmid pHD1MMLV was then sequenced completely. Transient transfections in COS-7 cells were performed and D1 specific binding was obtained. The construct pHD1MMLV was then transfected stably into CHO cells and 72 G418-resistant clones were isolated. High expressors were identified by mRNA dot blot analysis. Six high expressors were further characterized by binding and then clone CHO-D1M#9 was chosen for detailed pharmacological characterization. This clone was then grown in suspension culture for the purpose of obtaining enough protein to accommodate several months of screening.
B. Cell Culture Conditions
• 1. […] Cells are transferred to suspension culture when at least […] are available (this allows for 300,000 cells/ml in a 50 ml spinner flask; this is the ideal suspension density). Cells are removed from flasks with trypsin, spun down at 1000×G and resuspended the pellet in fresh medium: • 50% CHO-SFM-II+50% Ham's F12 w/10% FBS (final FBS conc. 5%)+400 μg/ml G418+1% P/S. • 3. After the transfer to suspension culture, growth is monitored and cell viability is assessed using trypan blue exclusion. Total and viable cell count on 5 sectors of the hemocytometer are recorded. When the viable cell density reaches 600,000 cell/ml, the volume is doubled. • 4. After 1 week of growth in the 50/50 medium, the cells are spun down and transferred to a new spinner flask and replaced with 75% CHO-SFM II/25% Ham's F12+10% FBS plus the pen-strep and G418. Thereafter every 3 days, the medium is replaced with new medium containing a decreasing amount of FBS as follows:
• 5. The final maintenance culturing medium is made up as follows: • A stock mixture of 10 ml of pen-strep, 0.5 ml of […] (active; final concentration: 200 μg/ml) G418 and 1 ml of FBS are mixed and filtered and refrigerated. A volume (11.5 ml) of this mixture is added to a freshly opened 1 L bottle of CHO-SFM II. C. Membrane Preparation
Cells are harvested into 250 ml centrifuge tubes and spun down at 1200×G. The medium is removed and 100 ml PBS (phosphate-buffered saline) is added to each centrifuge tube; cells are resuspended and spun down again. The PBS is removed and the final pellet is homogenized with a polytron on ice at a medium setting.
The membrane suspension is diluted in water and samples (10, 50 and 100 μl; q.s. to 100 μl with water) are diluted with 100 μl of 1% SDS. The sample is vortexed and allowed to stand for 5 min. Two aliquots each of the solubilized protein sample are placed in clean 13×100 test tubes for the assay. Instructions are followed as outlined in the BioRad DC protein determination kit (Catalog # 500-0112). OD readings that fall between 0.1-0.5 (mid-range of standard curve) should typically be used for calculations. Protein concentrations are calculated from a standard curve using bovine serum albumin as standard by linear regression and interpolation.
Following cell harvesting and protein determination, the homogenate is diluted with 10% DMSO to the correct volume based on Bmax and relative size of individual experiments to be conducted. The concentrated protein is stored in cryogenic vials in aliquots of 1-1.5 ml. Samples may be stored in −80° C. freezer or in liquid nitrogen.

human dopamine D2Long (D2L) receptors, sequence (P14416 whole entry): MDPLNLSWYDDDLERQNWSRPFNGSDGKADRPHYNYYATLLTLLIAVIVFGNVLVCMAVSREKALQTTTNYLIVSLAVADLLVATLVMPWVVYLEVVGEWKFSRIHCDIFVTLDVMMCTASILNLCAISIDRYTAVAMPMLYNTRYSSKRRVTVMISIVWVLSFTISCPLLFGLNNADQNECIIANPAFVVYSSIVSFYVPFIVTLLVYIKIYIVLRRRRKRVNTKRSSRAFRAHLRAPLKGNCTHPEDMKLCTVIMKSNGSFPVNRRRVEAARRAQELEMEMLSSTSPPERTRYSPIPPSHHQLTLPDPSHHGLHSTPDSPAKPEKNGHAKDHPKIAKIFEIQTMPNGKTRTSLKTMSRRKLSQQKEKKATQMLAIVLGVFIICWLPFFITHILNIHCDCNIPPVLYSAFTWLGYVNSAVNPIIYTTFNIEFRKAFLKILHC

SMILES: CNC[C@@H]1O[C@H](C2CCN(CC3CCCCC3)CC2)Cc2c1ccc(C)c2O [Example 96, (1R,3S)-3-(1-Cyclohexylmethyl-piperidin-4-yl)-6-methyl-1-methylaminomethyl-isochroman-5-ol dihydrochloride]
- Ki [1]: 552 nM
- Ki [2]: 265 nM

SMILES: Cc1ccc2c(c1O)C[C@@H](C1CCN(C(=O)OCc3ccccc3)CC1)O[C@H]2CN [Example 122, 4-((1R,3S)-1-Aminomethyl-5-hydroxy-6-methyl-isochroman-3-yl)-piperidine-1-carboxylic acid benzyl ester hydrochloride]
- Ki [1]: 751 nM
- Ki [2]: 92 nM

SMILES: Cc1ccc2c(c1O)C[C@@H](C1CCN(C(=O)Nc3ccccc3O)CC1)O[C@H]2CN [Example 127, 4-((1R,3S)-1-Aminomethyl-5-hydroxy-6-methyl-isochroman-3-yl)-piperidine-1-carboxylic acid (2-hydroxy-phenyl)-amide hydrochloride]
- Ki [1]: ≥ 10000 nM
- Ki [2]: 105 nM

SMILES: Cc1ccc2c(c1O)C[C@@H](C1CCN(C(=O)N(C)C)CC1)O[C@H]2CN [Example 132, 4-((1R,3S)-1-Aminomethyl-5-hydroxy-6-methyl-isochroman-3-yl)-piperidine-1-carboxylic acid dimethylamide hydrochloride]
- Ki [1]: ≥ 100000 nM
- Ki [2]: 256 nM

SMILES: Cc1ccc2c(c1O)C[C@@H](C1CCN(C(=O)N(C(C)C)C(C)C)CC1)O[C@H]2CN [Example 133, 4-((1R,3S)-1-Aminomethyl-5-hydroxy-6-methyl-isochroman-3-yl)-piperidine-1-carboxylic acid diisopropylamide hydrochloride]
- Ki [1]: ≥ 100000 nM
- Ki [2]: 241 nM

SMILES: Cc1ccc2c(c1O)C[C@@H](C1CCN(C(=O)N3CCOCC3)CC1)O[C@H]2CN [Example 134, [4-((1R,3S)-1-Aminomethyl-5-hydroxy-6-methyl-isochroman-3-yl)-piperidin-1-yl]-morpholin-4-yl-methanone hydrochloride]
- Ki [1]: ≥ 100000 nM
- Ki [2]: 240 nM

SMILES: CCN(CC)C(=O)N1CCC([C@@H]2Cc3c(ccc(C)c3O)[C@H](CN)O2)CC1 [Example 136, 4-((1R,3S)-1-Aminomethyl-5-hydroxy-6-methyl-isochroman-3-yl)-piperidine-1-carboxylic acid diethylamide hydrochloride]
- Ki [1]: ≥ 100000 nM
- Ki [2]: 162 nM

SMILES: Cc1ccc2c(c1O)C[C@@H](C1CCN(C(=O)N3c4ccccc4Sc4ccccc43)CC1)O[C@H]2CN [Example 137, [4-((1R,3S)-1-Aminomethyl-5-hydroxy-6-methyl-isochroman-3-yl)-piperidin-1-yl]-phenothiazin-10-yl-methanone hydrochloride]
- Ki [1]: 163 nM
- Ki [2]: 412 nM

SMILES: Cc1ccc2c(c1O)C[C@@H](C1CCN(C(=O)N3CCCCC3)CC1)O[C@H]2CN [Example 138, [4-((1R,3S)-1-Aminomethyl-5-hydroxy-6-methyl-isochroman-3-yl)-piperidin-1-yl]-piperidin-1-yl-methanone hydrochloride]
- Ki [1]: ≥ 100000 nM
- Ki [2]: 198 nM

SMILES: Cc1ccc2c(c1O)C[C@@H](C1CCN(S(=O)(=O)c3ccccc3)CC1)O[C@H]2CN [Example 141, (1R,3S)-1-Aminomethyl-3-(1-benzenesulfonyl-piperidin-4-yl)-6-methyl-isochroman-5-ol hydrochloride]
- Ki [1]: ≥ 100000 nM
- Ki [2]: 193 nM

SMILES: Cc1ccc2c(c1O)C[C@@H](C1CCN(S(=O)(=O)c3ccccc3C(F)(F)F)CC1)O[C@H]2CN [Example 143, (1R,3S)-1-Aminomethyl-6-methyl-3-[1-(2-trifluoromethyl-benzenesulfonyl)-piperidin-4-yl]-isochroman-5-ol hydrochloride]
- Ki [1]: 777 nM
- Ki [2]: 167 nM

SMILES: Cc1ccc2c(c1O)C[C@@H](C1CCN(S(=O)(=O)c3ccc(C(C)C)cc3)CC1)O[C@H]2CN [Example 145, (1R,3S)-1-Aminomethyl-3-[1-(4-isopropyl-benzenesulfonyl)-piperidin-4-yl]-6-methyl-isochroman-5-ol hydrochloride]
- Ki [1]: 288 nM
- Ki [2]: 146 nM

SMILES: Cc1ccc2c(c1O)C[C@@H](C1CCN(S(=O)(=O)c3ccc(Cl)cc3)CC1)O[C@H]2CN [Example 148, (1R,3S)-1-Aminomethyl-3-[1-(4-chloro-benzenesulfonyl)-piperidin-4-yl]-6-methyl-isochroman-5-ol hydrochloride]
- Ki [1]: ≥ 100000 nM
- Ki [2]: 183 nM

SMILES: Cc1ccc2c(c1O)C[C@@H](C1CCN(S(=O)(=O)c3ccc(Cl)cc3Cl)CC1)O[C@H]2CN [Example 149, (1R,3S)-1-Aminomethyl-3-[1-(2,4-dichloro-benzenesulfonyl)-piperidin-4-yl]-6-methyl-isochroman-5-ol hydrochloride]
- Ki [1]: 589 nM
- Ki [2]: 213 nM

SMILES: Cc1ccc2c(c1O)C[C@@H](C1CCN(S(=O)(=O)c3ccc(Cl)c(Cl)c3)CC1)O[C@H]2CN [Example 150, (1R,3S)-1-Aminomethyl-3-[1-(3,4-dichloro-benzenesulfonyl)-piperidin-4-yl]-6-methyl-isochroman-5-ol hydrochloride]
- Ki [1]: ≥ 100000 nM
- Ki [2]: 256 nM

SMILES: Cc1ccc2c(c1O)C[C@@H](C1CCN(S(=O)(=O)c3ccc(-c4ccccc4)cc3)CC1)O[C@H]2CN [Example 152, (1R,3S)-1-Aminomethyl-3-[1-(biphenyl-4-sulfonyl)-piperidin-4-yl]-6-methyl-isochroman-5-ol hydrochloride]
- Ki [1]: ≥ 100000 nM
- Ki [2]: 169 nM

SMILES: CCS(=O)(=O)N1CCC([C@@H]2Cc3c(ccc(C)c3O)[C@H](CN)O2)CC1 [Example 153, (1R,3S)-1-Aminomethyl-3-(1-ethanesulfonyl-piperidin-4-yl)-6-methyl-isochroman-5-ol hydrochloride]
- Ki [1]: ≥ 100000 nM
- Ki [2]: 250 nM

SMILES: CCCCS(=O)(=O)N1CCC([C@@H]2Cc3c(ccc(C)c3O)[C@H](CN)O2)CC1 [Example 154, (1R,3S)-1-Aminomethyl-3-[1-(butane-1-sulfonyl)-piperidin-4-yl]-6-methyl-isochroman-5-ol hydrochloride]
- Ki [1]: ≥ 100000 nM
- Ki [2]: 270 nM

SMILES: Cc1ccc2c(c1O)C[C@@H](C1CCN(S(=O)(=O)C(C)C)CC1)O[C@H]2CN [Example 155, (1R,3S)-1-Aminomethyl-6-methyl-3-[1-(Propane-2-sulfonyl)-piperidin-4-yl]-isochroman-5-ol hydrochloride]
- Ki [1]: ≥ 100000 nM
- Ki [2]: 217 nM

SMILES: CCCCCCCCS(=O)(=O)N1CCC([C@@H]2Cc3c(ccc(C)c3O)[C@H](CN)O2)CC1 [Example 156, (1R,3S)-1-Aminomethyl-6-methyl-3-[1-(octane-1-sulfonyl)-piperidin-4-yl]-isochroman-5-ol hydrochloride]
- Ki [1]: ≥ 100000 nM
- Ki [2]: 139 nM

SMILES: Cc1ccc2c(c1O)C[C@@H](C1CCN(S(=O)(=O)Cc3ccc(Cl)c(Cl)c3)CC1)O[C@H]2CN [Example 160, (1R,3S)-1-Aminomethyl-3-[1-(3,4-dichloro-phenylmethanesulfonyl)-piperidin-4-yl]-6-methyl-isochroman-5-ol hydrochloride]
- Ki [1]: ≥ 100000 nM
- Ki [2]: 264 nM

SMILES: Cc1ccc2c(c1O)C[C@@H](C1CCN(S(=O)(=O)C[C@@]34CC[C@@H](CC3=O)C4(C)C)CC1)O[C@H]2CN [Example 162, 1(R)-[4-((1R,3S)-1-Aminomethyl-5-hydroxy-6-methyl-isochroman-3-yl)-piperidine-1-sulfonylmethyl]-7,7-dimethyl-bicyclo[2.2.1]heptan-2-one hydrochloride]
- Ki [1]: ≥ 100000 nM
- Ki [2]: 382 nM
